Results published in patent US4129737A, “Process for the preparation of an 8-alkyl-5-oxo-5,8-dihydro-pyrido(2,3-d)pyrimidine-6-carboxylic acid” (priority 1972, dated 1978).
Converted amounts (≈) assume the structure as drawn. Read-outs that look alike come from different tables or passages of the source.

Experiments:
Type in all cases: cell-based
[1] = system: Gram-negative microorganisms; assay: In vitro anti-microbial activity on agar media, overall; conditions: in vitro
Description: (§1) The products were tested on three Gram positive microorganisms (1 to 3) […] and on 10 Gram negative microorganisms (4 to 13).

[2] = system: B. subtilis; assay: Minimum inhibitory concentration by agar dilution, B. subtilis; conditions: Bacillus subtilis, 37° C., 18 hours, read-out: minimum inhibitory concentration (M.I.C.)
Description: (§2) (a) Trypticase soya medium (T.S.A.), which is very suitable for culturing the majority of microorganisms; it has the following composition:
(§3) (b) Ordinarily nutrient agar (N.A.), which is less rich in nutrients, corresponds to the following formulation: […]
(§4) Table I gives the minimum inhibitory concentrations (expressed in μg/cm^3) for the various microorganisms tested on each medium.
as §1
(§5) Table (II) gives the minimum inhibitory concentrations of the compounds of Examples XII to XVI, determined on the agar medium, N.A., and expressed in μg/cm^3.

[3] = system: Pr. mirabilis; assay: Minimum inhibitory concentration by agar dilution, Pr. mirabilis; conditions: Proteus mirabilis
Description: as §2, §3, §4, §1, §5

[4] = system: Pr. vulgaris; assay: Minimum inhibitory concentration by agar dilution, Pr. vulgaris; conditions: Proteus vulgaris
Description: as §2, §3, §4, §1, §5

[5] = system: B. pyocyaneus A22; assay: Minimum inhibitory concentration by agar dilution, B. pyocyaneus A22; conditions: Pseudomonas aeruginosa, A22, 37° C., 18 hours, read-out: minimum inhibitory concentration (M.I.C.)
Description: as §2, §3, §4, §1, §5

[6] = system: Pr. morganii; assay: Minimum inhibitory concentration by agar dilution, Pr. morganii; conditions: Morganella morganii, 37° C., 18 hours, read-out: minimum inhibitory concentration (M.I.C.)
Description: as §2, §3, §4, §1, §5

[7] = system: Staphylococcus 209 P; assay: Minimum inhibitory concentration by agar dilution, Staphylococcus 209 P; conditions: Staphylococcus
Description: as §2, §3, §4, §1, §5

[8] = system: Esch. Coli 95; assay: Minimum inhibitory concentration by agar dilution, Esch. Coli 95; conditions: Escherichia coli
Description: as §2, §3, §4, §1, §5

[9] = system: Salm. typhi; assay: Minimum inhibitory concentration by agar dilution, Salm. typhi; conditions: Salmonella enterica, 18 h
Description: as §2, §3, §4, §1, §5

[10] = system: Klebs. pneumoniae; assay: Minimum inhibitory concentration by agar dilution, Klebs. pneumoniae; conditions: Klebsiella pneumoniae, 37° C., 18 hours, read-out: minimum inhibitory concentration (M.I.C.)
Description: as §2, §3, §4, §1, §5

[11] = system: Sh. sonnei; assay: Minimum inhibitory concentration by agar dilution, Sh. sonnei; conditions: Shigella sonnei, 37° C., 18 hours, read-out: minimum inhibitory concentration (M.I.C.)
Description: as §2, §3, §4, §1, §5

[12] = system: Bord. bronchiseptica; assay: Minimum inhibitory concentration by agar dilution, Bord. bronchiseptica; conditions: Bordetella bronchiseptica, 37° C., 18 hours, read-out: minimum inhibitory concentration (M.I.C.)
Description: as §2, §3, §4, §1, §5

[13] = system: Streptococcus; assay: Minimum inhibitory concentration by agar dilution, Streptococcus Group A
Description: as §2, §3, §4, §1, §5

[14] = system: B. pyocyaneus TUR; assay: Minimum inhibitory concentration by agar dilution, B. pyocyaneus TUR; conditions: Pseudomonas aeruginosa, 37° C., 18 hours
Description: as §2, §3, §4, §1

[15] = N.A. (nutrient agar, pH 6.8), Table I
[16] = T.S.A. (trypticase soya medium, pH 7.3)
[17] = 18 h, pH 6.8, read-out: minimum inhibitory concentration (M.I.C.)
[18] = T.S.A. (trypticase soya medium, pH 7.3), 37° C., 18 hours, read-out: minimum inhibitory concentration (M.I.C.)
[19] = 18 h, pH 7.3, read-out: minimum inhibitory concentration (M.I.C.)
[20] = N.A. (nutrient agar, pH 6.8), 37° C., 18 hours, Table I, read-out: minimum inhibitory concentration (M.I.C.)
[21] = pH 6.8, read-out: minimum inhibitory concentration (M.I.C.)
[22] = pH 7.3, read-out: minimum inhibitory concentration (M.I.C.)
[23] = T.S.A. (trypticase soya medium, pH 7.3), read-out: minimum inhibitory concentration (M.I.C.)

Row | SMILES | activity against Gram-negative microorganisms [1] | MIC [2, 15] | MIC [2, 16] | MIC [4, 20] | MIC [5, 15] | MIC [5, 16] | MIC [6, 15] | MIC [6, 16] | MIC [7, 20] | MIC [8, 20] | MIC [9, 21] | MIC [9, 22] | MIC [10, 15] | MIC [10, 16] | MIC [11, 15] | MIC [11, 16] | MIC [12, 15] | MIC [12, 16] | MIC [14, 15] | MIC [14, 23] | further results
1 | CCn1cc(C(=O)O)c(=O)c2cnc(N3CCC(O)CC3)nc21 [IV, 2-(4'-Hydroxy-piperidino)-5-oxo-8-ethyl-5,8-dihydropyrido(2,3-d)pyrimidine-6-carboxylic acid] | particularly active against Gram-negative microorganisms | 0.8 µg/mL (≈ 2.51 µM) | 3.1 µg/mL (≈ 9.74 µM) | 3.1 µg/mL (≈ 9.74 µM) | 100 µg/mL (≈ 314 µM) | > 100 µg/mL | 0.4 µg/mL (≈ 1.26 µM) | 0.8 µg/mL (≈ 2.51 µM) | 1.6 µg/mL (≈ 5.03 µM) | 6.2 µg/mL (≈ 19.5 µM) | 6.2 µg/mL (≈ 19.5 µM) | 12.5 µg/mL (≈ 39.3 µM) | 0.4 µg/mL (≈ 1.26 µM) | 0.8 µg/mL (≈ 2.51 µM) | 3.1 µg/mL (≈ 9.74 µM) | 12.5 µg/mL (≈ 39.3 µM) | 100 µg/mL (≈ 314 µM) | > 100 µg/mL | 100 µg/mL (≈ 314 µM) | > 100 µg/mL | MIC [3, 17]: 12.5 µg/mL (≈ 39.3 µM); MIC [3, 18]: 25 µg/mL (≈ 78.5 µM); MIC [4, 19]: 12.5 µg/mL (≈ 39.3 µM); MIC [7, 18]: 50 µg/mL (≈ 157 µM); MIC [8, 19]: 12.5 µg/mL (≈ 39.3 µM); MIC [13, 17]: 12.5 µg/mL (≈ 39.3 µM); MIC [13, 19]: 12.5 µg/mL (≈ 39.3 µM)
2 | CCn1cc(C(=O)O)c(=O)c2cnc(N3CCN(CCO)CC3)nc21 [Example VI, 2-(4-β-Hydroxyethyl-piperazino)-5-oxo-8-ethyl-5,8-dihydropyrido(2,3-d)pyrimidine-6-carboxylic acid] | particularly active against Gram-negative microorganisms | 1.6 µg/mL (≈ 4.61 µM) | 3.1 µg/mL (≈ 8.92 µM) | 50 µg/mL (≈ 144 µM) | 50 µg/mL (≈ 144 µM) | > 100 µg/mL | 1.6 µg/mL (≈ 4.61 µM) | 1.6 µg/mL (≈ 4.61 µM) | 3.1 µg/mL (≈ 8.92 µM) | 1.6 µg/mL (≈ 4.61 µM) | 12.5 µg/mL (≈ 36 µM) | 6.2 µg/mL (≈ 17.8 µM) | 0.4 µg/mL (≈ 1.15 µM) | 1.6 µg/mL (≈ 4.61 µM) | 1.6 µg/mL (≈ 4.61 µM) | 1.6 µg/mL (≈ 4.61 µM) | 50 µg/mL (≈ 144 µM) | > 100 µg/mL | 50 µg/mL (≈ 144 µM) | > 100 µg/mL | MIC [3, 19]: 12.5 µg/mL (≈ 36 µM); MIC [3, 20]: 3.1 µg/mL (≈ 8.92 µM); MIC [4, 18]: 6.2 µg/mL (≈ 17.8 µM); MIC [7, 19]: 12.5 µg/mL (≈ 36 µM); MIC [8, 18]: 3.1 µg/mL (≈ 8.92 µM); MIC [13, 19]: 12.5 µg/mL (≈ 36 µM); MIC [13, 20]: 3.1 µg/mL (≈ 8.92 µM)
3 | CN1CCN(c2ncc3c(=O)c(C(=O)O)cn(C)c3n2)CC1 [Example X, 2-(4'-Methyl-piperazino)-5-oxo-8-methyl-5,8-dihydropyrido-(2,3-d)pyrimidine-6-carboxylic acid] | particularly active against Gram-negative microorganisms | 100 µg/mL (≈ 330 µM) | > 100 µg/mL | 3.1 µg/mL (≈ 10.2 µM) | 50 µg/mL (≈ 165 µM) | > 100 µg/mL | 3.1 µg/mL (≈ 10.2 µM) | 6.2 µg/mL (≈ 20.4 µM) | 50 µg/mL (≈ 165 µM) | 1.6 µg/mL (≈ 5.27 µM) | 3.1 µg/mL (≈ 10.2 µM) | 12.5 µg/mL (≈ 41.2 µM) | 6.2 µg/mL (≈ 20.4 µM) | 6.2 µg/mL (≈ 20.4 µM) | 12.5 µg/mL (≈ 41.2 µM) | 3.1 µg/mL (≈ 10.2 µM) | 25 µg/mL (≈ 82.4 µM) | 100 µg/mL (≈ 330 µM) | 50 µg/mL (≈ 165 µM) | > 100 µg/mL | MIC [3, 19]: 12.5 µg/mL (≈ 41.2 µM); MIC [3, 20]: 3.1 µg/mL (≈ 10.2 µM); MIC [4, 18]: 25 µg/mL (≈ 82.4 µM); MIC [7, 18]: 100 µg/mL (≈ 330 µM); MIC [8, 18]: 6.2 µg/mL (≈ 20.4 µM); MIC [13, 20]: 50 µg/mL (≈ 165 µM); MIC [13, 18]: 100 µg/mL (≈ 330 µM)
4 | CCn1cc(C(=O)O)c(=O)c2cnc(N3CCN(C)CC3)nc21 [Example V, 2-(4'-Methyl-piperazino)-5-oxo-8-ethyl-5,8-dihydro-pyrido(2,3-d)pyrimidine-6-carboxylic acid] | particularly active against Gram-negative microorganisms | 1.6 µg/mL (≈ 5.04 µM) | 6.2 µg/mL (≈ 19.5 µM) | 1.6 µg/mL (≈ 5.04 µM) | 12.5 µg/mL (≈ 39.4 µM) | 100 µg/mL (≈ 315 µM) | 0.8 µg/mL (≈ 2.52 µM) | 1.6 µg/mL (≈ 5.04 µM) | 3.1 µg/mL (≈ 9.77 µM) | 0.8 µg/mL (≈ 2.52 µM) | 3.1 µg/mL (≈ 9.77 µM) | 3.1 µg/mL (≈ 9.77 µM) | 0.4 µg/mL (≈ 1.26 µM) | 6.2 µg/mL (≈ 19.5 µM) | 0.8 µg/mL (≈ 2.52 µM) | 1.6 µg/mL (≈ 5.04 µM) | 50 µg/mL (≈ 158 µM) | 100 µg/mL (≈ 315 µM) | 50 µg/mL (≈ 158 µM) | 100 µg/mL (≈ 315 µM) | MIC [3, 20]: 6.2 µg/mL (≈ 19.5 µM); MIC [3, 18]: 6.2 µg/mL (≈ 19.5 µM); MIC [4, 18]: 6.2 µg/mL (≈ 19.5 µM); MIC [7, 18]: 100 µg/mL (≈ 315 µM); MIC [8, 18]: 6.2 µg/mL (≈ 19.5 µM); MIC [13, 20]: 25 µg/mL (≈ 78.8 µM); MIC [13, 18]: 6.2 µg/mL (≈ 19.5 µM)
